Measured values: US10562842B2, “Use of polyaminoisoprenyl derivatives in antibiotic or antiseptic treatment” (UNIVERSITE D'AIX-MARSEILLE, priority 2011, dated 2020)
In brackets after ≈: the same amount, converted by molar mass.

What was measured:
AB1 [1] = assay: MIC of antibiotics ± test compound (MIC ratio), micro-broth dilution; format: cell-based, Acinetobacter baumannii; settings: compound at MIC/4
Procedure: (§1) Susceptibilities to antibiotics and compounds were determined in microplates by broth dilution method, as previously described. Minimal Inhibitory Concentrations (MICs) were determined with an inoculum of 10^6 CFU in 200 μL of MH broth containing two-fold serial dilutions of each drug. […] All MIC determinations were repeated at least three times in independent experiments.
(§2) The MICs of chloramphenicol±test compounds (MIC/4) were determined by the micro-broth dilution method (9). All MIC determinations were repeated at least three times in independent experiments. The MIC ratio corresponds to the ratio of the MIC of an antibiotic alone to the MIC of the same antibiotic in the presence of the tested compound (at MIC/4).
(§3) For reminder, the MIC ratio corresponds to the ratio of the MIC of the assessed antibiotic alone to the MIC of the same antibiotic in the presence of the tested compound (at MIC/4).

ATCC 19606 [2] = assay: as above; format: cell-based, Acinetobacter baumannii; settings: compound at MIC/4
Procedure: as §1, §2, §3

BN10055ΔacrB = assay: MIC by broth dilution (intrinsic MIC); format: cell-based, Salmonella enterica; settings: Salmonella BN10055ΔacrB
Procedure: as §1

BN10055 = assay: MIC by broth dilution (intrinsic MIC); format: cell-based, Salmonella enterica; settings: Salmonella enterica; Salmonella BN10055
Procedure: as §1

ATCC 13048 [3] = assay: MIC of antibiotics ± test compound (MIC ratio), micro-broth dilution; format: cell-based, Enterobacter aerogenes; settings: compound at MIC/4; Example 4
Procedure: as §1, §2, §3

Ea27 [4] = assay: as above; format: cell-based, Enterobacter aerogenes; settings: compound at MIC/4; Example 4
Procedure: as §1, §2, §3

CM64 = assay: as above; format: cell-based, Enterobacter aerogenes; settings: compound at MIC/4; Example 4
Procedure: as §1, §2, §3

Ea289ΔacrB (Ea294) = assay: as above; format: cell-based, Enterobacter aerogenes; settings: compound at MIC/4; for MIC ratio Chloramphenicol E. aerogenes Ea294 / MIC ratio Doxycycline E. aerogenes Ea294 / MIC ratio Nalidixic acid E. aerogenes Ea294: Example 4
Procedure: The Enterobacter aerogenes Ea289 strain is a Kans derivative of the MDR clinical isolate Ea27, the acrB mutant, EaEP294, was constructed from Ea289. Multidrug-resistant Salmonella enterica serovar Typhimurium DT104 strains (BN10055) was isolated from cattle in France, the isogenic acrB derivative mutant, BN10055ΔacrB, was constructed from BN10055. Strains were maintained at −80° C. in 25% (v/v) glycerol for cryoprotection. Bacteria were routinely grown in Mueller-Hinton (MH) broth at 37° C.
as §1
[…] All MIC determinations were repeated at least three times in independent experiments. The MIC ratio corresponds to the ratio of the MIC of an antibiotic alone to the MIC of the same antibiotic in the presence of the tested compound (at MIC/4).
as §3

Ea294 = assay: MIC by broth dilution (intrinsic MIC); format: cell-based, Enterobacter aerogenes; settings: Klebsiella aerogenes, read-out: intrinsic MIC, Ea294
Procedure: as §1

Ea289 = assay: MIC by broth dilution (intrinsic MIC); format: cell-based, Enterobacter aerogenes; settings: Klebsiella aerogenes; Enterobacter Ea289
Procedure: as §1

ATCC 13048 [5] = assay: MIC by broth dilution (intrinsic MIC); format: cell-based; settings: Klebsiella aerogenes, ATCC13048; Enterobacter ATCC 13048
Procedure: as §1

Ea27 [6] = assay: MIC by broth dilution (intrinsic MIC); format: cell-based; settings: Klebsiella aerogenes; Enterobacter Ea27
Procedure: as §1

AB1 [7] = assay: MIC by broth dilution (intrinsic MIC); format: cell-based; settings: Acinetobacter baumannii
Procedure: as §1

AG100 [8] = assay: MIC by broth dilution (intrinsic MIC); format: cell-based; settings: Escherichia coli AG100
Procedure: as §1

PAO1 [9] = assay: MIC by broth dilution (intrinsic MIC); format: cell-based; settings: Pseudomonas aeruginosa
Procedure: as §1

ATCC 19606 [10] = assay: MIC by broth dilution (intrinsic MIC); format: cell-based; settings: Acinetobacter baumannii, ATCC19606; Acinetobacter ATCC 19606
Procedure: as §1

PA124 [11] = assay: MIC by broth dilution (intrinsic MIC); format: cell-based; settings: Pseudomonas aeruginosa
Procedure: as §1

AG100 [12] = assay: MIC of antibiotics ± test compound (MIC ratio), micro-broth dilution; format: cell-based, Escherichia coli; settings: compound at MIC/4; Example 4
Procedure: as §1, §2, §3

PAO1 [13] = assay: as above; format: cell-based, Pseudomonas aeruginosa; settings: compound at MIC/4
Procedure: as §1, §2, §3

PA124 [14] = assay: as above; format: cell-based, Pseudomonas aeruginosa; settings: compound at MIC/4
Procedure: as §1, §2, §3

[15] = tested on: Enterobacter aerogenes MDR Ea289; assay: as above; format: cell-based; settings: compound at MIC/4, Set 2; for MIC ratio (*) on Ea289 Dox: doxycycline; for MIC ratio (*) on Ea289 Nal: nalidixic acid

## CC(C)=CCCC(C)=CCNCCCN(CCCN)CCCN (racemic) [Compound 11, {3-[Bis-(3-amino-propyl)-amino]-propyl}-(3,7-dimethyl-octa-2,6-dienyl)-amine]
AB1 [1]
  MIC ratio Cefepime Acinetobacter baumannii AB1: 1
  MIC ratio Chloramphénicol Acinetobacter baumannii AB1: 16
  MIC ratio Doxycycline Acinetobacter baumannii AB1: 2
  MIC ratio Tetracycline Acinetobacter baumannii AB1: 2
ATCC 19606 [2]
  MIC ratio Cefepime Acinetobacter baumannii ATCC19606: 4-8
  MIC ratio Chloramphénicol Acinetobacter baumannii ATCC19606: 8
  MIC ratio Doxycycline Acinetobacter baumannii ATCC19606: 1
  MIC ratio Tetracycline Acinetobacter baumannii ATCC19606: 8
BN10055ΔacrB
  intrinsic MIC, BN10055ΔacrB: 15 µM
BN10055
  MIC: 31 µM (≈ 10.1 µg/mL)
ATCC 13048 [3]
  MIC ratio Chloramphenicol E. aerogenes ATCC13048: >32
  MIC ratio Doxycycline E. aerogenes ATCC13048: 64
  MIC ratio Oxacillin E. aerogenes ATCC13048: >8
Ea27 [4]
  MIC ratio Chloramphenicol E. aerogenes Ea27: >4
  MIC ratio Doxycycline E. aerogenes Ea27: 32
  MIC ratio Oxacillin E. aerogenes Ea27: 1
CM64
  MIC ratio Chloramphenicol E. aerogenes CM64: 16
  MIC ratio Oxacillin E. aerogenes CM64: >8
Ea289ΔacrB (Ea294); chloramphenicol, Set 1
  MIC ratio(*) on Ea289ΔacrB Chl: 16
Ea289ΔacrB (Ea294)
  MIC ratio Chloramphenicol E. aerogenes Ea294: 16
  MIC ratio Doxycycline E. aerogenes Ea294: 4
  MIC ratio Nalidixic acid E. aerogenes Ea294: 8
Ea289ΔacrB (Ea294); erythromycin, Set 1
  MIC ratio(*) on Ea289ΔacrB Ery: 16
Ea289ΔacrB (Ea294); nalidixic acid, Set 1
  MIC ratio(*) on Ea289ΔacrB Nal: 8
Ea294
  MIC: 15 µM (≈ 4.87 µg/mL)
Ea289
  MIC: 31 µM (≈ 10.1 µg/mL)
ATCC 13048 [5]
  MIC: 31 µM (≈ 10.1 µg/mL)
Ea27 [6]
  MIC: 31 µM (≈ 10.1 µg/mL)
AB1 [7]
  MIC: 31 µM (≈ 10.1 µg/mL)
AG100 [8]
  MIC: 31 µM (≈ 10.1 µg/mL)
PAO1 [9]
  MIC: 62 µM (≈ 20.1 µg/mL)
ATCC 19606 [10]
  MIC: 62 µM (≈ 20.1 µg/mL)
PA124 [11]
  MIC: 62 µM (≈ 20.1 µg/mL)
AG100 [12]
  MIC ratio Chloramphenicol E. Coli AG100: 16
  MIC ratio Doxycycline E. Coli AG100: >32
  MIC ratio Oxacillin E. Coli AG100: 16
PAO1 [13]
  MIC ratio Cefepime Pseudomonas aeruginosa PAO1: 1
  MIC ratio Doxycycline Pseudomonas aeruginosa PAO1: >16
PA124 [14]
  MIC ratio Cefepime Pseudomonas aeruginosa PA124: 1
  MIC ratio Chloramphénicol Pseudomonas aeruginosa PA124: 128
  MIC ratio Doxycycline Pseudomonas aeruginosa PA124: >32
  MIC ratio Tetracycline Pseudomonas aeruginosa PA124: 8
[15]
  MIC ratio (*) on Ea289 Dox: 32
  MIC ratio (*) on Ea289 Nal: 8

## CC(C)=CCC/C(C)=C/CC/C(C)=C/CNCCCN(C)CCCN [Compound 14, {3-[(3-Amino-propyl)-methyl-amino]-propyl}-((2E,6E)-3,7,11-trimethyl-dodeca-2,6,10-trienyl)-amine]
AB1 [1]
  MIC ratio Cefepime Acinetobacter baumannii AB1: 1
  MIC ratio Chloramphénicol Acinetobacter baumannii AB1: 16
  MIC ratio Doxycycline Acinetobacter baumannii AB1: 2
  MIC ratio Tetracycline Acinetobacter baumannii AB1: 4
ATCC 19606 [2]
  MIC ratio Cefepime Acinetobacter baumannii ATCC19606: 4-8
  MIC ratio Chloramphénicol Acinetobacter baumannii ATCC19606: 8
  MIC ratio Doxycycline Acinetobacter baumannii ATCC19606: 1
  MIC ratio Tetracycline Acinetobacter baumannii ATCC19606: 4
BN10055ΔacrB
  intrinsic MIC, BN10055ΔacrB: 15 µM
BN10055
  MIC: 31 µM (≈ 10.8 µg/mL)
ATCC 13048 [3]
  MIC ratio Chloramphenicol E. aerogenes ATCC13048: >32
  MIC ratio Doxycycline E. aerogenes ATCC13048: 64
  MIC ratio Oxacillin E. aerogenes ATCC13048: >8
Ea27 [4]
  MIC ratio Chloramphenicol E. aerogenes Ea27: >4
  MIC ratio Doxycycline E. aerogenes Ea27: 32
  MIC ratio Oxacillin E. aerogenes Ea27: 1
CM64
  MIC ratio Chloramphenicol E. aerogenes CM64: 16
  MIC ratio Oxacillin E. aerogenes CM64: >8
Ea289ΔacrB (Ea294)
  MIC ratio Chloramphenicol E. aerogenes Ea294: 2
  MIC ratio Doxycycline E. aerogenes Ea294: 4
  MIC ratio Nalidixic acid E. aerogenes Ea294: 4
Ea294
  MIC: 15 µM (≈ 5.24 µg/mL)
Ea289
  MIC: 31 µM (≈ 10.8 µg/mL)
ATCC 13048 [5]
  MIC: 31 µM (≈ 10.8 µg/mL)
Ea27 [6]
  MIC: 31 µM (≈ 10.8 µg/mL)
AB1 [7]
  MIC: 62 µM (≈ 21.7 µg/mL)
AG100 [8]
  MIC: 62 µM (≈ 21.7 µg/mL)
PAO1 [9]
  MIC: 250 µM (≈ 87.4 µg/mL)
ATCC 19606 [10]
  MIC: 62 µM (≈ 21.7 µg/mL)
PA124 [11]
  MIC: 250 µM (≈ 87.4 µg/mL)
AG100 [12]
  MIC ratio Chloramphenicol E. Coli AG100: 16
  MIC ratio Doxycycline E. Coli AG100: >32
  MIC ratio Oxacillin E. Coli AG100: 16
PAO1 [13]
  MIC ratio Cefepime Pseudomonas aeruginosa PAO1: 1
  MIC ratio Doxycycline Pseudomonas aeruginosa PAO1: >16
PA124 [14]
  MIC ratio Cefepime Pseudomonas aeruginosa PA124: 1
  MIC ratio Chloramphénicol Pseudomonas aeruginosa PA124: 128
  MIC ratio Doxycycline Pseudomonas aeruginosa PA124: >32
  MIC ratio Tetracycline Pseudomonas aeruginosa PA124: 8
[15]
  MIC ratio (*) on Ea289 Dox: 64
  MIC ratio (*) on Ea289 Nal: 32
